ChEMBL document CHEMBL2440100, “Therapeutic potential of the peptide leucine arginine as a new nonplant bowman-birk-like serine protease inhibitor” (J Med Chem, 2013)
Where a SMILES comes first, the peptide text is derived from it. Bridges are numbered along the chain shown (N, C = ends).

test: Inhibition of bovine trypsin using benzoyl-L-arginine p-nitroanilide as substrate after 5 to 60 mins; design: species or system Bos taurus

Row | SMILES | Ki
1 | C[C@@H](O)[C@@H]1NC(=O)[C@H](Cc2c[nH]c3ccccc23)NC(=O)[C@@H](N)CSSC[C@@H](C(=O)O)NC(=O)[C@@H]2CCCN2C(=O)[C@H](CCCCN)NC(=O)[C@@H]2CCCN2C(=O)[C@@H]2CCCN2C(=O)[C@H](Cc2ccc(O)cc2)NC(=O)[C@H](CO)NC(=O)[C@H](CCCCN)NC1=O | 335 nM
2 | CC[C@H](C)[C@@H]1NC(=O)[C@@H]2CCCN2C(=O)[C@@H]2CCCN2C(=O)[C@H]([C@@H](C)CC)NC(=O)[C@H](CO)NC(=O)[C@H](CCCCN)NC(=O)[C@H]([C@@H](C)O)NC(=O)[C@@H](NC(=O)[C@H](CCCNC(=N)N)NC(=O)CN)CSSC[C@@H](C(=O)N[C@@H](Cc2ccccc2)C(=O)N2CCC[C@H]2C(=O)N[C@@H](CC(=O)O)C(=O)O)NC1=O | 20 nM
3 | CC(C)C[C@H](N)C(=O)N[C@H](C(=O)N[C@@H](CCCNC(=N)N)C(=O)NCC(=O)N[C@H]1CSSC[C@@H](C(=O)N[C@@H](Cc2ccccc2)C(=O)N[C@H](C(=O)N[C@@H](CCCNC(=N)N)C(=O)O)C(C)C)NC(=O)[C@H](CCCCN)NC(=O)[C@@H]2CCCN2C(=O)[C@@H]2CCCN2C(=O)[C@H](Cc2ccc(O)cc2)NC(=O)[C@H](CO)NC(=O)[C@H](CCCCN)NC(=O)[C@H]([C@@H](C)O)NC1=O)C(C)C (H-LVRGCTKSYPPKCFVR-OH; disulfide 5-13) | 245 nM
4 | CC(C)C[C@H](N)C(=O)N[C@H](C(=O)N[C@@H](CCCNC(=N)N)C(=O)NCC(=O)N[C@H]1CSSC[C@@H](C(=O)N[C@@H](Cc2ccccc2)C(=O)N[C@H](C(=O)N[C@@H](CCCNC(=N)N)C(=O)O)C(C)C)NC(=O)[C@@H]2CCCN2C(=O)[C@H](CCCCN)NC(=O)[C@@H]2CCCN2C(=O)[C@@H]2CCCN2C(=O)[C@H](Cc2ccc(O)cc2)NC(=O)[C@H](CO)NC(=O)[C@H](CCCCN)NC(=O)[C@H](C)NC(=O)[C@H](Cc2c[nH]c3ccccc23)NC1=O)C(C)C (H-LVRGCWAKSYPPKPCFVR-OH; disulfide 5-15) | 1110 nM
5 | CC(C)C[C@H](N)C(=O)N[C@H](C(=O)N[C@@H](CCCNC(=N)N)C(=O)NCC(=O)N[C@H]1CSSC[C@@H](C(=O)N[C@@H](Cc2ccccc2)C(=O)N[C@H](C(=O)N[C@@H](CCCNC(=N)N)C(=O)O)C(C)C)NC(=O)[C@@H]2CCCN2C(=O)[C@H](CCCCN)NC(=O)[C@@H]2CCCN2C(=O)[C@@H]2CCCN2C(=O)[C@H](C)NC(=O)[C@H](CO)NC(=O)[C@H](CCCCN)NC(=O)[C@H]([C@@H](C)O)NC(=O)[C@H](Cc2c[nH]c3ccccc23)NC1=O)C(C)C (H-LVRGCWTKSAPPKPCFVR-OH; disulfide 5-15) | 142 nM
6 | CC(C)C[C@H](N)C(=O)N[C@H](C(=O)N[C@@H](CCCNC(=N)N)C(=O)NCC(=O)N[C@H]1CSSC[C@@H](C(=O)N[C@@H](Cc2ccccc2)C(=O)N[C@H](C(=O)N[C@@H](CCCNC(=N)N)C(=O)O)C(C)C)NC(=O)[C@@H]2CCCN2C(=O)[C@H](CCCCN)NC(=O)[C@H](C)NC(=O)[C@@H]2CCCN2C(=O)[C@H](Cc2ccc(O)cc2)NC(=O)[C@H](CO)NC(=O)[C@H](CCCCN)NC(=O)[C@H]([C@@H](C)O)NC(=O)[C@H](Cc2c[nH]c3ccccc23)NC1=O)C(C)C (H-LVRGCWTKSYPAKPCFVR-OH; disulfide 5-15) | 155 nM
7 | CC(C)C[C@H](N)C(=O)N[C@H](C(=O)N[C@@H](CCCNC(=N)N)C(=O)NCC(=O)N[C@H]1CSSC[C@@H](C(=O)N[C@@H](Cc2ccccc2)C(=O)N[C@H](C(=O)N[C@@H](CCCNC(=N)N)C(=O)O)C(C)C)NC(=O)[C@@H]2CCCN2C(=O)[C@H](C)NC(=O)[C@@H]2CCCN2C(=O)[C@@H]2CCCN2C(=O)[C@H](Cc2ccc(O)cc2)NC(=O)[C@H](CO)NC(=O)[C@H](CCCCN)NC(=O)[C@H]([C@@H](C)O)NC(=O)[C@H](Cc2c[nH]c3ccccc23)NC1=O)C(C)C (H-LVRGCWTKSYPPAPCFVR-OH; disulfide 5-15) | 400 nM

Other lines, results leading:

Row | Ki | SMILES
8 | 116 nM | CC(C)C[C@H](NC(=O)[C@H](C)NC(=O)CN)C(=O)N[C@@H](CCCNC(=N)N)C(=O)NCC(=O)N[C@H]1CSSC[C@@H](C(=O)N[C@@H](CCCCN)C(=O)O)NC(=O)[C@@H]2CCCN2C(=O)[C@H](CCCCN)NC(=O)[C@@H]2CCCN2C(=O)[C@@H]2CCCN2C(=O)[C@H](Cc2ccc(O)cc2)NC(=O)[C@H](CO)NC(=O)[C@H](CCCCN)NC(=O)[C@H]([C@@H](C)O)NC(=O)[C@H](Cc2c[nH]c3ccccc23)NC1=O (H-GALRGCWTKSYPPKPCK-OH; disulfide 6-16)
9 | 670 nM | CC(C)C[C@H](N)C(=O)N[C@H](C(=O)N[C@@H](CCCNC(=N)N)C(=O)NCC(=O)N[C@H]1CSSC[C@@H](C(=O)N[C@@H](Cc2ccccc2)C(=O)N[C@H](C(=O)N[C@@H](CCCNC(=N)N)C(=O)O)C(C)C)NC(=O)[C@@H]2CCCN2C(=O)[C@H](CCCCN)NC(=O)[C@@H]2CCCN2C(=O)[C@@H]2CCCN2C(=O)[C@H](Cc2ccc(O)cc2)NC(=O)[C@H](CO)NC(=O)[C@H](CCCCN)NC(=O)[C@H]([C@@H](C)O)NC(=O)[C@H](C)NC1=O)C(C)C (H-LVRGCATKSYPPKPCFVR-OH; disulfide 5-15)
10 | 245 nM | CC(C)C[C@H](N)C(=O)N[C@H](C(=O)N[C@@H](CCCNC(=N)N)C(=O)NCC(=O)N[C@H]1CSSC[C@@H](C(=O)N[C@@H](Cc2ccccc2)C(=O)N[C@H](C(=O)N[C@@H](CCCNC(=N)N)C(=O)O)C(C)C)NC(=O)[C@@H]2CCCN2C(=O)[C@H](CCCCN)NC(=O)[C@@H]2CCCN2C(=O)[C@@H]2CCCN2C(=O)[C@H](Cc2ccc(O)cc2)NC(=O)[C@H](C)NC(=O)[C@H](CCCCN)NC(=O)[C@H]([C@@H](C)O)NC(=O)[C@H](Cc2c[nH]c3ccccc23)NC1=O)C(C)C (H-LVRGCWTKAYPPKPCFVR-OH; disulfide 5-15)
11 | 252 nM | CC(C)C[C@H](N)C(=O)N[C@H](C(=O)N[C@@H](CCCNC(=N)N)C(=O)NCC(=O)N[C@H]1CSSC[C@@H](C(=O)N[C@@H](Cc2ccccc2)C(=O)N[C@H](C(=O)N[C@@H](CCCNC(=N)N)C(=O)O)C(C)C)NC(=O)[C@H](C)NC(=O)[C@H](CCCCN)NC(=O)[C@@H]2CCCN2C(=O)[C@@H]2CCCN2C(=O)[C@H](Cc2ccc(O)cc2)NC(=O)[C@H](CO)NC(=O)[C@H](CCCCN)NC(=O)[C@H]([C@@H](C)O)NC(=O)[C@H](Cc2c[nH]c3ccccc23)NC1=O)C(C)C (H-LVRGCWTKSYPPKACFVR-OH; disulfide 5-15)
12 | 322 nM | CC(C)C[C@H](N)C(=O)N[C@H](C(=O)N[C@@H](CCCNC(=N)N)C(=O)NCC(=O)N[C@H]1CSSC[C@@H](C(=O)O)NC(=O)[C@@H]2CCCN2C(=O)[C@H](CCCCN)NC(=O)[C@@H]2CCCN2C(=O)[C@@H]2CCCN2C(=O)[C@H](Cc2ccc(O)cc2)NC(=O)[C@H](CO)NC(=O)[C@H](CCCCN)NC(=O)[C@H]([C@@H](C)O)NC(=O)[C@H](Cc2c[nH]c3ccccc23)NC1=O)C(C)C (H-LVRGCWTKSYPPKPC-OH; disulfide 5-15)
13 | 129 nM | C[C@H](NC(=O)[C@@H](N)CO)C(=O)N1CCC[C@H]1C(=O)N[C@@H](CCCNC(=N)N)C(=O)NCC(=O)N[C@H]1CSSC[C@@H](C(=O)N[C@@H](CCCCN)C(=O)O)NC(=O)[C@@H]2CCCN2C(=O)[C@H](CCCCN)NC(=O)[C@@H]2CCCN2C(=O)[C@@H]2CCCN2C(=O)[C@H](Cc2ccc(O)cc2)NC(=O)[C@H](CO)NC(=O)[C@H](CCCCN)NC(=O)[C@H]([C@@H](C)O)NC(=O)[C@H](Cc2c[nH]c3ccccc23)NC1=O (H-SAPRGCWTKSYPPKPCK-OH; disulfide 6-16)
